Data on seven compounds can be found in ChEMBL document CHEMBL1150471, “Tritylated oncolytics as prodrugs” (Bioorg Med Chem Lett, 1995).

Values after ≈ are worked out from the molar mass of the structure shown. Active and inactive are the calls of the source. Where only a bound is given, the exact number is not on record here.

By IC50 is commonly meant the midpoint of a concentration-inhibition curve. What is called ED50 is the dose at which the effect has come halfway, by size or by number of responders. By Inhibition is commonly meant the percentage by which the read-out fell short of the control. By half-life is commonly meant the time needed for the level to fall by half in the phase considered. In general, inhibition in vivo refers to how much of the control response was suppressed.

In one series the test system is CCRF-CEM. Kind of series: In vitro cytotoxicity against human leukemia cell line CCRF-CEM. The format is functional, cell-based.
In series [1] the test system is Homo sapiens. The series is described as follows: Effective dose for the dose dependent inhibition of tumor growth against human colon (HC-1) xenograft in mice. The format is functional. (In general: Xenograft models place foreign cells or tissue in a host animal.)
Series [2] relates to Homo sapiens. The series is described as follows: In vivo tumor inhibition against human colon (HC-1) xenograft after i.p. administration to C3H nude mice on day 1. The format is functional. Details: concentration or dose not given beside the values.
The subject of series [3] is Homo sapiens. Kind of series: In vivo tumor inhibition against human colon (HC-1) xenograft after i.p. administration to C3H nude mice on days 10. The arrangement: concentration or dose not given beside the values. The format is functional.
Series [4] has as its system Homo sapiens. Kind of series: In vivo tumor inhibition against human colon (HC-1) xenograft after i.p. administration to C3H nude mice on days 4. The format is functional. Details: concentration or dose not given beside the values.
Series [5] deals with Homo sapiens. Kind of series: In vivo tumor inhibition against human colon (HC-1) xenograft after i.p. administration to C3H nude mice on days 7. The format is functional. Details: concentration or dose not given beside the values.
Series [6] can be described thus: Half life at pH 5.4; no dissociation up to day 33. The format is ADME. Particulars: buffer.
Series [7] is described as follows: Half life at pH 6.4; no dissociation up to day 33. The format is ADME. Particulars: buffer.
Series [8] can be described thus: Half life at pH 7.4; no dissociation up to day 33. The format is ADME. Particulars: buffer.
Series [9] concerns Homo sapiens. The series is described as follows: Effective dose for the dose dependent inhibition of tumor growth against human colon (HC-1) xenograft in mice; Inactive. The format is functional, organism-based.
Series [10] is described as follows: Half life at pH 5.4. The format is ADME. Particulars: buffer.
Series [11] in a line: Half life at pH 6.4. The format is ADME. Particulars: buffer.
A short description of series [12]: Half life at pH 7.4. The format is ADME. Particulars: buffer.
Series [13] deals with Homo sapiens. The series is described as follows: In vivo inhibition against human colon (HC-1) xenograft at a dose of 20 mg/kg. The format is functional.
Series [14] deals with Homo sapiens. The series is described as follows: In vivo inhibition against human colon (HC-1) xenograft at a dose of 37.5 mg/kg. The format is functional.
Series [15] concerns Homo sapiens. Kind of series: In vivo inhibition against human colon (HC-1) xenograft at a dose of 50 mg/kg. The format is functional.
Series [16] concerns Homo sapiens. The series is described as follows: In vivo inhibition against human colon (HC-1) xenograft at a dose of 75 mg/kg. The format is functional.

For the compound `Cc1ccc(C(Nc2nc(N)nc3c2ncn3[C@@H]2O[C@H](CO)[C@@H](O)C2(F)F)(c2ccccc2)c2ccc(C(=O)NC(C)C)cc2)cc1` (stereo not given in full), half-maximal inhibition in the series on CCRF-CEM (IC50) was put at 0.8 µg/mL (≈ 1.24 µM). Moreover, in the series with Homo sapiens [1], it took a dose of 30 mg/kg to reach the 50% effect level (ED50). Moreover, the Inhibition in the series on Homo sapiens [2], in the series on Homo sapiens [3], in the series with Homo sapiens [4] and with Homo sapiens [5] was more than 95% throughout.
For `CC(C)NC(=O)c1ccc(C(Nc2nc(N)nc3c2ncn3[C@@H]2O[C@H](CO)[C@@H](O)C2(F)F)(c2ccccc2)c2ccccc2)cc1`, the T1/2 entry in series [6], in series [7] and in series [8] was “no dissociation up to day 33” each time. This compound yielded an IC50 in the series on CCRF-CEM of 1.7 µg/mL (≈ 2.7 µM). Also, the ED50 entry with Homo sapiens [9] is “inactive”. Also, the Inhibition in the series on Homo sapiens [2], in the series with Homo sapiens [3], in the series with Homo sapiens [4] and with Homo sapiens [5] was more than 95% each time.
Turning to `COc1ccc(C(Nc2nc(N)nc3c2ncn3[C@@H]2O[C@H](CO)[C@@H](O)C2(F)F)(c2ccccc2)c2ccc(C(=O)NC(C)C)cc2)cc1` (stereo not given in full), the half-life in [10] is 1000 min; in [11], 32800 min; in series [12], 33.3 days. For the same compound, the IC50 with CCRF-CEM was 0.1 µg/mL (≈ 0.152 µM). In addition, the Inhibition with Homo sapiens [2], with Homo sapiens [3], in the series with Homo sapiens [4] and in the series with Homo sapiens [5] was more than 95% in each case.
On to `COc1ccc(C(Nc2nc(N)nc3c2ncn3[C@@H]2O[C@H](CO)[C@@H](O)C2(F)F)(c2ccc(OC)cc2)c2ccc(C(=O)NC(C)C)cc2)cc1`, for which the figures for the half-life in [10], in [11] and in [12] were 223 min, 888 min and 6.1 days, respectively. In the series on CCRF-CEM, this compound had an IC50 of 0.078 µg/mL (≈ 0.113 µM). The Inhibition in the series on Homo sapiens [2], in the series on Homo sapiens [3], in the series on Homo sapiens [4] and with Homo sapiens [5] was more than 95% throughout.
In the case of `COc1ccc(C(Nc2nc(N)nc3c2ncn3[C@@H]2O[C@H](CO)[C@@H](O)C2(F)F)(c2ccc(OC)cc2)c2cccc(C(=O)NC(C)C)c2)cc1`, the half-life is 141 min in series [10], 1400 min in series [11] and 5.55 days in [12]. In the series on CCRF-CEM, the IC50 came out at 0.084 µg/mL (≈ 0.122 µM).
Compound `COc1ccc(C(Nc2nc(N)nc3c2ncn3[C@@H]2O[C@H](CO)[C@@H](O)C2(F)F)(c2ccc(C)cc2)c2ccc(C(=O)NC(C)C)cc2)cc1` (stereo not given in full) gave an IC50 in the series with CCRF-CEM of 0.1 µg/mL (≈ 0.148 µM). For the same compound, the Inhibition in the series with Homo sapiens [2], in the series on Homo sapiens [3], with Homo sapiens [4] and with Homo sapiens [5] was more than 95% throughout.
In the case of `Nc1nc(N)c2ncn([C@@H]3O[C@H](CO)[C@@H](O)C3(F)F)c2n1`, the IC50 in the series with CCRF-CEM worked out at 0.024 µg/mL (≈ 0.0794 µM). Moreover, the inhibition in vivo at 20 mg/kg in the series with Homo sapiens [13] was more than 95%. Besides, the inhibition in vivo at 37.5 mg/kg in the series with Homo sapiens [14] was more than 95%. For the same compound, in the series on Homo sapiens [15], the inhibition in vivo at 50 mg/kg was more than 95%. Further, the inhibition in vivo at 75 mg/kg with Homo sapiens [16] was more than 95%.
